3 compounds from US20170360781A1, “PHARMACEUTICAL COMPOSITION COMPRISING BICYCLIC NITROGEN-CONTAINING AROMATIC HETEROCYCLIC AMIDE COMPOUND AS ACTIVE INGREDIENT” (Astellas Pharma Inc., priority 2014, published 2017) can be followed below.

The test system of assay [1] is SU-DHL-4 cells derived from DLBCL. In words: Anti-tumor test 2 on mice tumor-bearing DLBCL-derived SU-DHL-4 cells. Format: in vivo. Particulars: SU-DHL-4, Balb/c nude mice, final measuring day. How it is done:
(§1) 4 to 5 week old male Balb/c nude mice (CHARLES RIVER LABORATORIES JAPAN, INC.) were injected and implanted, under the skin on the back, with 3×10^6 DB cells or SU-DHL-4 cells both derived from DLBCL suspended to a mixed solution of PBS and Matrigel (registered trademark) in 1:1. Dividing into groups was performed when tumor volume reached 100 to 250 mm^3, and administering of the test compounds was started. The test was performed on each of the 5 mice in the solvent group and the compound administered group. By oral administration, 6% cyclodextrin aqueous solution for the solvent group, and 6% cyclodextrin aqueous solution in which the test compound was mixed by the dosage shown in Table 10 for the compound administered group were administered. The administration was performed once a day for 21 days by oral administration, and the body weight and the tumor diameter were measured twice a week. For calculation of the tumor volume, the formula below was used.
(§2) [Tumor volume(mm^3)]=[major axis of tumor(mm)]×[minor axis of tumor (mm)]^2×0.5
(§3) The inhibition rate of tumor growth and the rate of tumor regression were calculated from the average value of the tumor volume according to the formula below.
(§4) Inhibition rate of tumor growth(%)=(1−average of tumor volume growth in each group/average of tumor volume growth in solvent group)×100
(§5) Rate of tumor regression(%)=(1−average tumor volume in each group on measuring day/average tumor volume in each group when dividing groups)×100

Assay [2] concerns DB cells derived from DLBCL. Briefly: Anti-tumor test 2 on mice tumor-bearing DLBCL-derived DB cells. It counts as in vivo. Conditions: Balb/c nude mice, final measuring day. The method, then:
as §1, §2, §3, §4, §5

Assay [3] has as its system Human AML-derived MV-4-11 cells. Briefly: Anti-tumor test 2 on tumor-bearing mice transplanted with human AML-derived MV-4-11 cell. Format: in vivo. Conditions: MV-4-11, NOD/SCID mice, 14 days after starting the administration. The method, then:
4 to 5 week old male NOD/SCID nude mice (CHARLES RIVER LABORATORIES JAPAN, INC.) were injected and implanted, under the skin on the back, with 5×10^6 MV-4-11 cells suspended to a mixed solution of PBS and Matrigel (registered trademark) in 1:1. Administering of the test compounds was started when tumor volume reached 100 to 250 mm^3. The test was performed on each of the 5 mice in the solvent group and the compound administered group. By oral administration, 6% cyclodextrin aqueous solution for the solvent group, and 6% cyclodextrin aqueous solution in which the test compound was mixed by the dosage shown in Table 8 for the compound administered group were administered. The administration was performed once a day by oral administration, and the body weight and the tumor diameter were measured twice a week. For calculation of the tumor volume, the formula below was used.
(§6) [Tumor volume(mm^3)]=[major axis of tumor(mm)]×[minor axis of tumor(mm)]^2×0.5
as §3, §4, §5
The anti-tumor effect of Test Compounds A1, B1, C1, and D1 on the final measuring day (14 days after starting the administration) is shown in Table 8.

Assay [4] concerns PIK3CA mutation-positive Colo201 cells derived from human colorectal cancer. In words: Anti-tumor test 2 on mice tumor-bearing human colorectal cancer-derived Colo201 cells. It counts as in vivo. Conditions: Colo201, Balb/c nude mice, final measuring day. How it is done: (§7) 4 to 5 week old male Balb/c nude mice (CHARLES RIVER LABORATORIES JAPAN, INC.) were injected and implanted, under the skin on the back, with 3×10^6 PIK3CA mutation-positive and BRAF mutation-positive RKO cells, or 3×10^6 PIK3CA mutation-positive Colo201 cells, both derived from human colorectal cancer suspended to a mixed solution of PBS and Matrigel (registered trademark) in 1:1. Dividing into groups was performed when the tumor volume reached 100 to 250 mm^3, and administering of the test compounds was started. The test was performed on each of the 5 mice in the solvent group and the compound administered group. By oral administration, 6% cyclodextrin aqueous solution for the solvent group, and 6% cyclodextrin aqueous solution in which the test compound was mixed by the dosage shown in Table 4 for the compound administered group were administered. The administration was performed once a day for 11 days (RKO) or 21 days (Colo201), and the body weight and the tumor diameter were measured twice a week. For calculation of the tumor volume, the formula below was used.
as §6
(§8) The inhibition rate of tumor growth was calculated from the average value of the tumor volume according to the formula below.
(§9) Inhibition rate of tumor growth(%)=([…]average of tumor volume growth in each group/average of tumor volume growth in solvent group)×100

Assay [5] concerns PIK3CA mutation-positive and BRAF mutation-positive RKO cells derived from human colorectal cancer. In words: Anti-tumor test 2 on mice tumor-bearing human colorectal cancer-derived RKO cells. Format: in vivo. Conditions: Balb/c nude mice, final measuring day. The method, then: as §7, §6, §8, §9
In assay [6] the test system is Human AML-derived KG-1 cells. Briefly: Anti-tumor test 2 on tumor-bearing mice transplanted with human AML-derived KG-1 cell. Format: in vivo. Conditions: KG-1, Balb/c nude mice, final measuring day. The method, then:
as §1, with “5 weeks” for “5 week”, “3×10^6 KG-1” for “3×10^6 DB”, “cells” for “cells or SU-DHL-4 cells both derived from DLBCL”, “to 200” for “to 250”, “Table 6” for “Table 10”, “21 days,” for “21 days by oral administration,”
as §6, §3, §4, §5

Assay [7] addresses Human Mitochondrial Complex I (Homo sapiens, UniProt O75251+O75306+P03886). In words: Evaluation on effect of inhibiting human mitochondrial Complex I (mitochondria from MDA-MB-453 tumor). Format: biochemical. Particulars: mitochondria extracted from MDA-MB-453 tumor; concentration in terms of freebase.
Description: A solution of 9 times the tumor weight for extraction of mitochondria (0.275 M Sucrose, 2.2 mM EDTA, 11 mM Tris/HCl, pH 7.5, Complete-EDTA-free (Roche Diagnostics)) was added thereto, and then the tumor was crushed. The centrifugation was performed at 600×g for 10 minutes at 4° C., the supernatant was obtained, and then the centrifugation was performed at 14,000×g for 10 minutes at 4° C., and therefore pellets were obtained. The pellets were suspended in 10 mM Tris/HCl pH 7.5 of 5 times the weight of the extracted tumor, and therefore a suspension of human mitochondria was obtained.
Next, 25 or 50 μl of the suspension of human mitochondria was added per 1 ml of a liquid for measuring Complex I activity (25 mM potassium phosphate, pH 7.6, 0.35% Bovine Serum Albumin (BSA), 60 μM 2,6-dichlorophenol-indophenol, 70 μM decylubiquinone, 1 μM antimycin). After the solution was collected and added to a 96 or 384 well plate, a test compound was added to an arbitrary range from the final concentration of 10,000 nM to the final concentration of 0.3 nM. […] Furthermore, NADH was added to each well to the final concentration of 0.2 or 0.5 mM, and the change in absorbance at a wavelength of 600 nm was measured by using the SpectraMax (Molecular Devices, LLC.) set to 37° C. in advance. […]
Where [8] appears, read: 1 mg/kg oral once a day for 21 days.
Setting [9] is: 1 mg/kg oral once a day for 11 days.
Where [10] appears, read: 8 mg/kg oral once a day for 21 days.

Each structure is given as a SMILES string.

In the case of `CCOc1cnc(CN2CCC(c3ccc4cc(C(=O)N5CCN(Cc6ccc(C#N)cc6)CC5)n(C)c4c3)CC2)cn1` [Compound C1, 4-({4-[(6-{1-[(5-ethoxypyrazin-2-yl)methyl]piperidin-4-yl}-1-methyl-1H-indol-2-yl)carbonyl]piperazin-1-yl}methyl)benzonitrile], the “Inhibition rate SU-DHL-4” value in assay [1] (setting [8]) is 100%. Moreover, the “Regression rate DB” value in assay [2] (setting [8]) turned out to be 69% regression. Further, the “Rate of tumor regression” value in assay [3] (1 mg/kg oral once a day) is 77% regression; in assay [6] (setting [8]) it was 29% regression. Moreover, the “Inhibition rate Colo201” value in assay [4] (setting [8]) is listed as 54%. Besides, the “Inhibition rate RKO” value in assay [5] (setting [9]) was found to be 58%.

As to `COc1cnc(CN2CCC(c3ccc4c(c3)cc(C(=O)N3CCN(Cc5ccc(C#N)cc5)CC3)n4C)CC2)cn1` [Compound D1, 4-({4-[(5-{1-[(5-methoxypyrazin-2-yl)methyl]piperidin-4-yl}-1-methyl-1H-indol-2-yl)carbonyl]piperazin-1-yl}methyl)benzonitrile], the “Inhibition rate SU-DHL-4” value in assay [1] (setting [8]) was 40%. Further, the “Inhibition rate DB” value in assay [2] (setting [8]) was found to be 96% inhibition. The “Inhibition rate of tumor growth” value in assay [3] (1 mg/kg oral once a day) is on record as 90% inhibition; in assay [6] (setting [8]), 95% inhibition. This compound had an IC50 in assay [7] of 120 nM. Also, the “Inhibition rate Colo201” value in assay [4] (setting [8]) was found to be 45%. Moreover, the “Inhibition rate RKO” value in assay [5] (setting [9]) was 13%.

Turning to `COc1cnc(CN2CCC(c3ccc4[nH]c(C(=O)N5CCN(Cc6ccc(C(F)(F)F)cc6)CC5)nc4c3)CC2)cn1` [Compound B1, (5-{1-[(5-methoxypyrazin-2-yl)methyl]piperidin-4-yl}-1H-benzimidazol-2-yl){4-[4-(trifluoromethyl)benzyl]piperazin-1-yl}methanone], the “Inhibition rate SU-DHL-4” value in assay [1] (setting [10]) is reported as 87%. Besides, the “Regression rate DB” value in assay [2] (setting [10]) came out at 92% regression. Moreover, the “Rate of tumor regression” value in assay [3] (8 mg/kg oral once a day) was 76% regression; in assay [6] (setting [10]), 31% regression. Moreover, the “Inhibition rate Colo201” value in assay [4] (setting [10]) turned out to be 52%. Besides, the “Inhibition rate RKO” value in assay [5] (8 mg/kg oral once a day for 11 days) is reported as 55%.
